Measurements reported in the supplement of paper PMC10307832.

Columns and labels:
Assay in all cases: relative viability (nuclei count vs DMSO), 5 days (fraction); higher = more cells survive
Bemcentinib + Foretinib = compound: Nc1nc(Nc2ccc3c(c2)CC[C@@H](N2CCCC2)CC3)nn1-c1cc2c(nn1)-c1ccccc1CCC2 [Bemcentinib] + COc1cc2c(Oc3ccc(NC(=O)C4(C(=O)Nc5ccc(F)cc5)CC4)cc3F)ccnc2cc1OCCCN1CCOCC1 [Foretinib] (partner 0.25 µM)
Summary of the method: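 Medians of duplicate plates are given as relative viability. That measure is the nuclei count in treated wells divided by the count in vehicle wells. Counts were taken on 4× images of lung cancer cell lines in 1536-well plates, 5 days after pin-tool dosing the day after seeding with one drug alone or a fixed anchor-drug dose plus five library-drug doses (not always all listed) in √10 steps.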

Pifithrin_alpha = compound: CC1=CC=C(C=C1)C(=O)CN2C3=C(CCCC3)SC2=N [Pifithrin_alpha]
Summary of the method: (§1)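 In 1536-well plates, lung cancer cell lines rested overnight at 37 °C before five library-drug doses (not always all listed), √10 apart, were pinned onto vehicle-anchored plates. Nuclei were counted with MetaXpress from 4× Hoechst images taken after 5 days without medium change. Viability compares treated-well with vehicle-well nuclei as a median over plates, and plates needed control CV below 25% plus at least one doubling to pass.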

Axitinib = compound: CNC(=O)c1ccccc1Sc1ccc2c(/C=C/c3ccccn3)n[nH]c2c1 [Axitinib]
Summary of the method: as §1

Bemcentinib = compound: Nc1nc(Nc2ccc3c(c2)CC[C@@H](N2CCCC2)CC3)nn1-c1cc2c(nn1)-c1ccccc1CCC2 [Bemcentinib]
Summary of the method: as §1

Cell Line	relative viability (Bemcentinib + Foretinib; first compound 0.04 µM)	relative viability (Bemcentinib + Foretinib; first compound 0.1265 µM)	relative viability (Bemcentinib + Foretinib; first compound 0.4 µM)	relative viability (Bemcentinib + Foretinib; first compound 1.265 µM)	relative viability (Bemcentinib + Foretinib; first compound 4 µM)	relative viability (Pifithrin_alpha; 1 µM)	relative viability (Pifithrin_alpha; 3.162 µM)	relative viability (Pifithrin_alpha; 10 µM)	relative viability (Pifithrin_alpha; 31.62 µM)	relative viability (Pifithrin_alpha; 100 µM)	relative viability (Axitinib; 0.005 µM)	relative viability (Axitinib; 0.01581 µM)	relative viability (Axitinib; 0.05 µM)	relative viability (Axitinib; 0.1581 µM)	relative viability (Axitinib; 0.5 µM)	relative viability (Bemcentinib; 0.04 µM)	relative viability (Bemcentinib; 0.1265 µM)	relative viability (Bemcentinib; 0.4 µM)	relative viability (Bemcentinib; 1.265 µM)	relative viability (Bemcentinib; 4 µM)
NCI-H1563	0.998	0.999	0.975	0.897	0.949	0.999	0.996	0.981	0.957	0.895	0.999	0.887	0.973	0.924	0.891	0.993	0.961	0.971	1.14	1.05
EMC-BAC-2	0.972	1.02	1.04	1.03	1.06	0.716	1.02	0.617	0.799	0.93	1	0.925	0.977	0.957	0.771	0.956	0.939	1.07	0.955	0.978
NCI-H596	0.84	0.848	0.974	0.799	0.94	1.12	0.886	0.958	0.973	0.996	1.04	0.956	1.03	1.06	0.947	0.883	1.03	0.924	0.908	1.07
NCI-H2009	1.29	1.26	1.25	1.24	1.24	0.96	1.01	0.974	0.65	0.878	1.01	1	1.05	1.06	1.09	1.02	1.04	1.04	1.03	1.05
HOP-62	1.22	1.14	1.01	1.06	1.21	0.952	1.1	1.06	0.791	1.12	1.01	0.965	1.03	1.01	1.03	1.01	1.15	0.999	1.02	1.04
NCI-H2126	1.25	1.43	1.37	1.13	1.23	0.638	0.862	0.884	0.85	0.822	0.979	0.991	0.993	1	0.953	1	1.03	1.03	1.04	1.11
HCC-15	1.11	1.18	1.11	1.04	1.11	0.938	1.02	0.931	0.674	0.808	1.06	0.99	1	0.98	0.947	0.964	1.13	1.05	1.07	1.07
NCI-H23	0.916	1.2	1.15	1.09	1.08	0.847	0.846	0.959	0.582	0.787	1.02	0.954	1.15	0.926	0.97	0.92	1.24	1.13	0.838	1.06
LCLC-97TM1	0.941	0.97	0.929	0.964	1.02		0.934	1.13		0.975	1.06	1.02	0.986	0.892	0.822	0.997	1.09	0.801	1.03	0.982
SW 1573	0.821	0.954	0.803	0.797	0.832	1.04	1.01	1.09	0.787	0.981	0.982	1	1.09	0.867	1.08	0.912	1.06	1.1	0.921	0.968
EKVX	0.837	0.488	0.842	1.11	0.834	0.984	0.861	0.858	0.738	0.695	1.01	0.963	0.917	0.88	0.99	0.793	1.09	1.02	1.03	1.03
HCC-44						0.819	0.911	0.911	0.736	0.856	1.01	0.971	0.977	0.987	0.988	0.984	1.03	1.01	1.02	0.988
NCI-H1651	0.824	0.928	0.812	0.856	1.14	1.03	0.998	0.944	0.871	0.944	0.973	0.89	0.963	0.951	1	1.04	1.06	1.08	1.01	1.01
COR-L23	0.949	1.23	0.969	1.08	0.999	1.07	1.09	0.977		0.94	1.05	0.93	1.06	0.923	1.05	1.03	1.17	1.14	1.18	1.12
NCI-H1299	1.09	1.13	1.13	1.13	1.09	0.997	1.06	1.02	0.812	1.02	1.04	1	1.05	1	1.08	1.02	1.02	1.05	0.994	1.05
NCI-H1734	0.854	0.916	0.818	0.838	0.952	0.885	0.99	0.915	0.751	0.937	0.998	0.951	1.03	0.9	1.03	0.91	1.01	0.982	0.996	1.08
